Laboratory results reported in patent US4127446A, “Process for producing antibiotics mimosamycin and chlorocarcins A, B and C” (priority 1975, dated 1978).
Converted amounts (≈) assume the structure as drawn.

Key:
[1] = tested on: Mycobacterium bovis No. 10; test: microbe, parasite or virus in culture; assay type: cell-based; settings: Mycobacterium tuberculosis variant bovis, NO.10, 672 h
gram-positive bacteria = test: Biological properties of mimosamycin: activity against gram-positive bacteria; assay type: cell-based
gram-negative bacteria = test: Biological properties of mimosamycin: activity against gram-negative bacteria; assay type: cell-based; settings: at a concentration of 50 μg/ml
fungi = test: Biological properties of mimosamycin: activity against fungi; assay type: cell-based; settings: at a concentration of 50 μg/ml
acid-fast bacteria = test: Biological properties of mimosamycin: activity against acid-fast bacteria; assay type: cell-based
[2] = tested on: highly streptomycin-resistant strains of human tubercle bacilli; assay type: cell-based; settings: compared with normal strains of tubercle bacilli
Solubility = assay type: physicochemical
tubercle bacilli = test: Activity of mimosamycin against tubercle bacilli (in words); assay type: cell-based
[3] = tested on: Mycobacterium smegmatis ATCC607; test: Antimicrobial activity of mimosamycin (Table 4); settings: Mycolicibacterium smegmatis, ATCC607, 48 h

COC1=C(C)C(=O)c2cc(=O)n(C)cc2C1=O [Mimosamycin]
MIC [1]: 6.25 µg/mL (≈ 26.8 µM) | activity against gram-positive bacteria (gram-positive bacteria): active against gram-positive bacteria to a certain extent | activity against gram-negative bacteria (gram-negative bacteria): non-effective | activity against fungi (fungi): non-effective | activity against acid-fast bacteria (acid-fast bacteria): active against acid-fast bacteria | activity against highly streptomycin-resistant strains of human tubercle bacilli [2]: effective against highly streptomycin-resistant strains of human tubercle bacilli as is against normal strains of tubercle bacilli | Solubility (Solubility; in ethyl ether, n-hexane): Sparingly soluble | Solubility (Solubility; in methanol, ethanol, chloroform, esters, acetone): Easily soluble | Solubility (Solubility; in water): Insoluble | activity against tubercle bacilli (tubercle bacilli): specifically effective against tubercle bacilli | MIC [3]: 25 µg/mL (≈ 107 µM)
